Legend:
[1] = test system: mongrel cats; assay: Inotropic and heart-circulatory effectiveness on narcotised cats, intravenous; assay type: in vivo, cat; conditions: 6 animals; for blood pressure before / dp/dt (inotropism) before / heart frequency before: before administration
[2] = test system: isolated guinea pig hearts; assay: Experiments on Langendorff hearts (coronary flowthrough, inotropism, frequency); conditions: Cavia porcellus, read-out: flowthrough, percentage change with regard to the initial value
Experimental: After reaching the stationary state in the 30th minute, the hearts were each perfused with 50 ml. tyrode solution with a content of test substance of, in each case, 25 μg./ml. Each test substance was tested on 3-6 hearts.
In each case, there was measured the inotropism, the flowthrough and the frequency, whereby the values given in Table I are average values of the percentage changes in comparison with the initial values.

[3] = test system: female NMRI-albino mice; assay: Acute toxicity, intravenous, mice; assay type: in vivo; conditions: within 24 hours
[4] = Acute toxicity, intravenous, mice; assay type: in vivo; conditions: mouse, in vivo; intravenous, within 24 hours; read-out: Evaluated LD50-range
[5] = test system: narcotised guinea pigs; assay: Blood pressure experiments on guinea pigs, i.v.; assay type: in vivo, guinea pig

CN(CCCOc1ccccc1)[C@H]1CO[C@H]2[C@@H]1OC[C@@H]2O[N+](=O)[O-] [Example 34, 5-[N-Methyl-N-(3-phenoxypropyl)-amino]-5-desoxy-1.4;3.6-dianhydro-L-iditol 2-nitrate]
blood pressure before ([1]; 0.25 mg/kg i.v.): 95.2 mm.Hg | dp/dt (inotropism) before ([1]; 0.25 mg/kg i.v.): 5333 mm.Hg/sec | heart frequency before ([1]; 0.25 mg/kg i.v.): 180.3 min⁻¹ | blood pressure WD ([1]; 0.25 mg/kg i.v.): 4.1 min | blood pressure after ([1]; 0.25 mg/kg i.v.): 73.7 mm.Hg | blood pressure Δ ([1]; 0.25 mg/kg i.v.): -21.5 mm.Hg | dp/dt (inotropism) after ([1]; 0.25 mg/kg i.v.): 4650 mm.Hg/sec | dp/dt (inotropism) Δ ([1]; 0.25 mg/kg i.v.): -683 mm.Hg/sec | dp/dt WD ([1]; 0.25 mg/kg i.v.): 2.8 min | heart frequency after ([1]; 0.25 mg/kg i.v.): 179.3 min⁻¹ | heart frequency Δ ([1]; 0.25 mg/kg i.v.): -1.0 min⁻¹ | blood pressure WD ([1]; 0.50 mg/kg i.v.): 4.2 min | blood pressure after ([1]; 0.50 mg/kg i.v.): 74.8 mm.Hg | blood pressure Δ ([1]; 0.50 mg/kg i.v.): -24.2 mm.Hg | dp/dt (inotropism) after ([1]; 0.50 mg/kg i.v.): 4683 mm.Hg/sec | dp/dt (inotropism) Δ ([1]; 0.50 mg/kg i.v.): -817 mm.Hg/sec | dp/dt WD ([1]; 0.50 mg/kg i.v.): 3,7 min | heart frequency after ([1]; 0.50 mg/kg i.v.): 178.0 min⁻¹ | heart frequency Δ ([1]; 0.50 mg/kg i.v.): -1.0 min⁻¹ | blood pressure WD ([1]; 1.00 mg/kg i.v.): 6.5 min | blood pressure after ([1]; 1.00 mg/kg i.v.): 74.5 mm.Hg | blood pressure Δ ([1]; 1.00 mg/kg i.v.): -30.8 mm.Hg | dp/dt (inotropism) after ([1]; 1.00 mg/kg i.v.): 4400 mm.Hg/sec | dp/dt (inotropism) Δ ([1]; 1.00 mg/kg i.v.): -1033 mm.Hg/sec | dp/dt WD ([1]; 1.00 mg/kg i.v.): 4.2 min | heart frequency after ([1]; 1.00 mg/kg i.v.): 172.0 min⁻¹ | heart frequency Δ ([1]; 1.00 mg/kg i.v.): -3.0 min⁻¹ | blood pressure WD ([1]; 2.50 mg/kg i.v.): > 9.0 min | blood pressure after ([1]; 2.50 mg/kg i.v.): 69.2 mm.Hg | blood pressure Δ ([1]; 2.50 mg/kg i.v.): -39.7 mm.Hg | dp/dt (inotropism) after ([1]; 2.50 mg/kg i.v.): 3850 mm.Hg/sec | dp/dt (inotropism) Δ ([1]; 2.50 mg/kg i.v.): -1450 mm.Hg/sec | dp/dt WD ([1]; 2.50 mg/kg i.v.): > 6.5 min | heart frequency after ([1]; 2.50 mg/kg i.v.): 158.0 min⁻¹ | heart frequency Δ ([1]; 2.50 mg/kg i.v.): -15.0 min⁻¹ | activation at 25 µg/mL [2]: 50%

O=[N+]([O-])O[C@H]1CO[C@H]2[C@@H]1OC[C@@H]2NCCCOc1ccccc1 [Example 36, 5-(3-Phenoxypropylamino)-5-desoxy-1.4;3.6-dianhydro-L-iditol 2-nitrate]
blood pressure before ([1]; 0.25 mg/kg i.v.): 114.5 mm.Hg | dp/dt (inotropism) before ([1]; 0.25 mg/kg i.v.): 7933 mm.Hg/sec | heart frequency before ([1]; 0.25 mg/kg i.v.): 200.3 min⁻¹ | blood pressure WD ([1]; 0.25 mg/kg i.v.): 5.1 min | blood pressure after ([1]; 0.25 mg/kg i.v.): 97.7 mm.Hg | blood pressure Δ ([1]; 0.25 mg/kg i.v.): -19.8 mm.Hg | dp/dt (inotropism) after ([1]; 0.25 mg/kg i.v.): 7433 mm.Hg/sec | dp/dt (inotropism) Δ ([1]; 0.25 mg/kg i.v.): -500 mm.Hg/sec | dp/dt WD ([1]; 0.25 mg/kg i.v.): 3.3 min | heart frequency after ([1]; 0.25 mg/kg i.v.): 204.3 min⁻¹ | blood pressure WD ([1]; 0.50 mg/kg i.v.): 8.5 min | blood pressure after ([1]; 0.50 mg/kg i.v.): 84.5 mm.Hg | blood pressure Δ ([1]; 0.50 mg/kg i.v.): -28.0 mm.Hg | dp/dt (inotropism) after ([1]; 0.50 mg/kg i.v.): 6650 mm.Hg/sec | dp/dt (inotropism) Δ ([1]; 0.50 mg/kg i.v.): -1183 mm.Hg/sec | dp/dt WD ([1]; 0.50 mg/kg i.v.): 7.9 min | heart frequency after ([1]; 0.50 mg/kg i.v.): 200.3 min⁻¹ | heart frequency Δ ([1]; 0.50 mg/kg i.v.): -3.7 min⁻¹ | blood pressure WD ([1]; 1.00 mg/kg i.v.): 14.8 min | blood pressure after ([1]; 1.00 mg/kg i.v.): 74.3 mm.Hg | blood pressure Δ ([1]; 1.00 mg/kg i.v.): -42.5 mm.Hg | dp/dt (inotropism) after ([1]; 1.00 mg/kg i.v.): 5467 mm.Hg/sec | dp/dt (inotropism) Δ ([1]; 1.00 mg/kg i.v.): -2416 mm.Hg/sec | dp/dt WD ([1]; 1.00 mg/kg i.v.): 19.0 min | heart frequency after ([1]; 1.00 mg/kg i.v.): 194.3 min⁻¹ | heart frequency Δ ([1]; 1.00 mg/kg i.v.): -8.0 min⁻¹ | blood pressure WD ([1]; 2.50 mg/kg i.v.): > 10 min | blood pressure after ([1]; 2.50 mg/kg i.v.): 62.5 mm.Hg | blood pressure Δ ([1]; 2.50 mg/kg i.v.): -58.3 mm.Hg | dp/dt (inotropism) after ([1]; 2.50 mg/kg i.v.): 4000 mm.Hg/sec | dp/dt (inotropism) Δ ([1]; 2.50 mg/kg i.v.): -3883 mm.Hg/sec | dp/dt WD ([1]; 2.50 mg/kg i.v.): 10 min | heart frequency after ([1]; 2.50 mg/kg i.v.): 175.3 min⁻¹ | heart frequency Δ ([1]; 2.50 mg/kg i.v.): -22.4 min⁻¹ | Frequency of death ([3]; 50 mg/kg i.v.): 0/3 | Frequency of death ([3]; 100 mg/kg i.v.): 5/6 | LD50 at 24 h [4]: 50 to 100 mg/kg

N#Cc1ccccc1OCC(O)CN[C@H]1CO[C@H]2[C@@H]1OC[C@@H]2O[N+](=O)[O-] (stereo partly drawn) [Example 50, 5-[2-Hydroxy-3-(2-cyanophenoxy)-propylamino]-5-desoxy-1.4;3.6-dianhydro-L-iditol 2-nitrate]
blood pressure before ([1]; 0.25 mg/kg i.v.): 121.0 mm.Hg | dp/dt (inotropism) before ([1]; 0.25 mg/kg i.v.): 6533 mm.Hg/sec | heart frequency before ([1]; 0.25 mg/kg i.v.): 190.7 min⁻¹ | blood pressure WD ([1]; 0.25 mg/kg i.v.): 8.5 min | blood pressure after ([1]; 0.25 mg/kg i.v.): 108.3 mm.Hg | blood pressure Δ ([1]; 0.25 mg/kg i.v.): -12.7 mm.Hg | dp/dt (inotropism) after ([1]; 0.25 mg/kg i.v.): 6033 mm.Hg/sec | dp/dt (inotropism) Δ ([1]; 0.25 mg/kg i.v.): -500 mm.Hg/sec | dp/dt WD ([1]; 0.25 mg/kg i.v.): 8.2 min | heart frequency after ([1]; 0.25 mg/kg i.v.): 195.3 min⁻¹ | heart frequency Δ ([1]; 0.25 mg/kg i.v.): +4.6 min^-1 | blood pressure WD ([1]; 0.50 mg/kg i.v.): 9.8 min | blood pressure after ([1]; 0.50 mg/kg i.v.): 102.2 mm.Hg | blood pressure Δ ([1]; 0.50 mg/kg i.v.): -18.0 mm.Hg | dp/dt (inotropism) after ([1]; 0.50 mg/kg i.v.): 5133 mm.Hg/sec | dp/dt (inotropism) Δ ([1]; 0.50 mg/kg i.v.): -1267 mm.Hg/sec | dp/dt WD ([1]; 0.50 mg/kg i.v.): 8.2 min | heart frequency after ([1]; 0.50 mg/kg i.v.): 195.3 min⁻¹ | heart frequency Δ ([1]; 0.50 mg/kg i.v.): +3.3 min^-1 | blood pressure WD ([1]; 1.00 mg/kg i.v.): 14.8 min | blood pressure after ([1]; 1.00 mg/kg i.v.): 94.2 mm.Hg | blood pressure Δ ([1]; 1.00 mg/kg i.v.): -27.8 mm.Hg | dp/dt (inotropism) after ([1]; 1.00 mg/kg i.v.): 4200 mm.Hg/sec | dp/dt (inotropism) Δ ([1]; 1.00 mg/kg i.v.): -2067 mm.Hg/sec | dp/dt WD ([1]; 1.00 mg/kg i.v.): 14.8 min | heart frequency after ([1]; 1.00 mg/kg i.v.): 191.7 min⁻¹ | heart frequency Δ ([1]; 1.00 mg/kg i.v.): 0 min⁻¹ | blood pressure WD ([1]; 2.50 mg/kg i.v.): > 10 min | blood pressure after ([1]; 2.50 mg/kg i.v.): 77.5 mm.Hg | blood pressure Δ ([1]; 2.50 mg/kg i.v.): -45.8 mm.Hg | dp/dt (inotropism) after ([1]; 2.50 mg/kg i.v.): 2733 mm.Hg/sec | dp/dt (inotropism) Δ ([1]; 2.50 mg/kg i.v.): -3584 mm.Hg/sec | dp/dt WD ([1]; 2.50 mg/kg i.v.): > 10 min | heart frequency after ([1]; 2.50 mg/kg i.v.): 178.7 min⁻¹ | heart frequency Δ ([1]; 2.50 mg/kg i.v.): -10.3 min⁻¹ | Frequency of death ([3]; 100 mg/kg i.v.): 0/3 | Frequency of death ([3]; 200 mg/kg i.v.): 4/6 | LD50 at 24 h [4]: 100 to 200 mg/kg | blood pressure after ([5]; 0.25 mg/kg i.v.): 39.25 ± 6.97 mm.Hg | blood pressure Δ ([5]; 0.25 mg/kg i.v.): -16.25 mm.Hg | blood pressure before ([5]; 0.25 mg/kg i.v., before administration): 55.50 ± 7.35 mm.Hg | blood pressure after ([5]; 1.00 mg/kg i.v.): 31.00 ± 3.94 mm.Hg | blood pressure Δ ([5]; 1.00 mg/kg i.v.): -21.50 mm.Hg | blood pressure after ([5]; 2.50 mg/kg i.v.): 22.75 ± 1.80 mm.Hg | blood pressure Δ ([5]; 2.50 mg/kg i.v.): -27.75 mm.Hg

Source: patent US4363805A, “Aminodesoxy-1.4;3.6-dianhydrohexitol nitrates and pharmaceutical composition” (Firma Willmar Schwabe, priority 1980, dated 1982)
